From patent publication US11672792B2, “Topical formulations comprising montelukast and combinations with mussel adhesive proteins” (ENLITISA (SHANGHAI) PHARMACEUTICAL CO., LTD, priority 2017, dated 2023)
Several values for one entry are separate records, joined by “and”; a condition that tells them apart may be missing. Identical values can stand only once. Like-named read-outs stand apart in the source and are kept apart here.

How the values were obtained:
[1] = tested on: full thickness skin wounds; assay: Acute Wound Model (Example 6); assay type: in vivo, C57BL/6 mice; conditions: for Hyp content (μg/mg tissue weight), single animals / Hyp content, Mean (n = 4): wound tissue
Protocol: 6-8 weeks old male C57BL/6 mice were supplied by Changzhou Cvens Experimental Animal Co. Ltd. Prior to any experiments being conducted, mice were housed under standardized conditions (at a constant temperature or 22±2° C., with alternating 12 hour periods of light and darkness), and were fed on a standard mouse diet with water, for about a week. […] The hair on the back was shaved by a baby hair shaver and depilated with cream. […] EMS skin biopsy punch (Electron Microscopy Sciences, P.O. […] Full thickness skin was removed and the depth reached the fascia. The wounds left open without suture. […] The model group was given same amount of normal saline. Recombinant Human Epidermal Growth Factor (rhEGF, Shanghai Haohai Biological Technology Co. Ltd, Shanghai, China) was purchased and prepared according to the manufacturer's instructions. Lyophilized rhEGF powder (100000 IU/vial) was dissolved in 20 mL of normal saline to make a solution with a 5000 IU/mL concentration. […] MedChemExpress, MCE China, Shanghai, China) was obtained in a powder form and was dissolved in ultrapure water to obtain solutions with concentrations as described in Table 22 (L, M and H indicate low, medium and high montelukast doses, respectively) Wounds were wrapped up with transparent dresser after drug administration. Photographs were taken for each wound every other day from Day 0. Photos were scanned into a computer, and wound areas calculated using ImageJ image analysis software (National Institutes of Health, […]). The unhealed wound area was expressed as a percentage of the original wound area: At/A0×100%, where A0 and At refer to the initial area at Day 0 and the wound area at the date of measurement (time t), respectively. […] Half of the tissue was preserved in 10% neutral buffered formalin (Nanchang […] Experimental Equipment Co., Ltd., Nanchang, […] Provence, China), and analyzed by histological embedding in paraffin wax, sectioning and staining. HE and Masson stained paraffin sections were analyzed under an optical microscope. Skin regeneration, fibroblastic proliferation, collagen regeneration scores and inflammation scores were estimated. The rest of the samples were stored at -80° C. for further analysis. […] The supernatant was collected, and the extracted protein was used for ELISA analysis using standard ELISA test kits and an ELISA reader (SH-1000 Hitachi, Japan). […] (Beijing, China).

[2] = tested on: full thickness skin wounds in diabetic mice; assay: Diabetic Wound Model (Example 7); assay type: in vivo, db/db mice (C57BL/KsJ-db/db); conditions: Day 6, Mon 100 μg/each
Protocol: A similar experiment with essentially the same protocol to that described in Example 6 above was carried out on 8 to 12 week-old male db/db mice (C57BL/KsJ-db/db, with a body weight of 35-45 g/mouse; supplied by Changzhou Cvens Experimental Animal Co. Ltd.).
An EMS skin biopsy punch with a […] diameter was used to make wounds.
Different drugs were administrated topically at 20 μL/wound, once daily from Day 0 to Day 18. The model group was given same amount of normal saline.
Samples were taken on Day 6, Day 12 and Day 18 post-wound inflictions.
Histological specimens were analyzed and skin regeneration, fibroblast proliferation, collagen regeneration scores (Masson score) and inflammation scores were estimated as follows.
The HE and Masson stained slices were observed under an optical microscope and were scored (1, 2 or 3 points) according to the following criteria. […]
Fibroblast proliferation was scored as the following criteria:
Inflammation was scored as the following criteria:
Collagen deposition score criterion for the Masson stained sample were as follows. […] No clear blue staining was given 0 points; blue fiber appearing in a scattered pattern was scored as 1 points; if more blue fiber appeared, this was scored as 2 points, and a diffuse blue colour was given 3 points.

[3] = for Montelukast amount in skin sample: unscalded intact skin
[4] = in vivo; conditions: Sprague Dawley, rat, skin (unscalded intact, full thickness), topical, 1 g montelukast cream
[5] = pH and stability of montelukast formulations; conditions: PEG-based creams or ointments; not prone to oxidation

## CC(C)(O)c1ccccc1CC[C@@H](SCC1(CC(=O)O)CC1)c1cccc(/C=C/c2ccc3ccc(Cl)cc3n2)c1 [Mon, Montelukast sodium]
[1]; Day 2, Mon H 200 μg/wound
  remaining wound area versus the initial wound: 76.11 ± 6.40%
[1]; Day 2, Mon L 50 μg/wound once daily topically
  remaining wound area versus the initial wound: 78.41 ± 9.51%
[1]; Day 2, Mon M 100 μg/wound
  remaining wound area versus the initial wound: 79.97 ± 11.79%
[1]; Day 4, Mon H 200 μg/wound
  improvement rate (wound healing): about 39%
  remaining wound area versus the initial wound: 48.60 ± 6.49%
[1]; Day 4, Mon L 50 μg/wound
  remaining wound area versus the initial wound: 57.59 ± 11.54%
[1]; Day 4, Mon M 100 μg/wound
  remaining wound area versus the initial wound: 55.09 ± 8.83%
[1]; Day 6, Mon H 200 μg/wound
  remaining wound area versus the initial wound: 29.13 ± 6.16%
[1]; Day 6, Mon L 50 μg/wound
  remaining wound area versus the initial wound: 27.53 ± 3.76%
[1]; Day 6, Mon M 100 μg/wound
  remaining wound area versus the initial wound: 28.51 ± 1.03%
[1]; Day 8, Mon H 200 μg/wound
  remaining wound area versus the initial wound: 14.59 ± 3.04%
[1]; Day 8, Mon L 50 μg/wound
  remaining wound area versus the initial wound: 14.08 ± 2.85%
[1]; Day 8, Mon M 100 μg/wound
  remaining wound area versus the initial wound: 13.87 ± 3.51%
[1]; Day 12, Mon H 200 μg/wound
  remaining wound area versus the initial wound: 2.48 ± 3.43%
[1]; Day 12, Mon L 50 μg/wound
  remaining wound area versus the initial wound: 1.15 ± 2.29%
[1]; Day 12, Mon M 100 μg/wound
  remaining wound area versus the initial wound: 2.15 ± 3.73%
[1]; Mon H 200 μg/wound
  Hyp content (μg/mg tissue weight), single animals: 4.62 μg/mg tissue weight and 5.83 μg/mg tissue weight and 3.99 μg/mg tissue weight and 4.64 μg/mg tissue weight
  Hyp content, Mean (n = 4): 4.77 μg/mg tissue weight
[1]; Mon L 50 μg/wound
  Hyp content (μg/mg tissue weight), single animals: 4.65 μg/mg tissue weight and 4.41 μg/mg tissue weight and 6.71 μg/mg tissue weight and 6.05 μg/mg tissue weight
  Hyp content, Mean (n = 4): 5.46 μg/mg tissue weight
[1]; Mon M 100 μg/wound
  Hyp content (μg/mg tissue weight), single animals: 4.94 μg/mg tissue weight and 4.18 μg/mg tissue weight and 6.80 μg/mg tissue weight and 4.98 μg/mg tissue weight
  Hyp content, Mean (n = 4): 5.23 μg/mg tissue weight
[2]
  increase of VEGF production in the wounded tissue in comparison with model group: about 74%
[2]; wound tissue, rhEGF 100 IU/each, once daily topically
  VEGF content, Mean: 5.47 pg/g
[3]; 0 h, 1 g montelukast cream topically
  Montelukast amount in skin sample: 0 g
[3]; 1 h
  Montelukast amount in skin sample: 2.53 g
[3]; 2 h
  Montelukast amount in skin sample: 5.44 g
[3]; 3 h
  Montelukast amount in skin sample: 0.89 g
[3]; 6 h
  Montelukast amount in skin sample: 0.90 g
[3]; 8 h
  Montelukast amount in skin sample: 3.54 g
[3]; scalded skin
  time of montelukast peak in skin: 2 h
[4]
  concentration at 0 h: 0 ng/g
  concentration at 1 h: 36700 ng/g
  concentration at 2 h: 68000 ng/g
  concentration at 3 h: 13400 ng/g
  concentration at 6 h: 15600 ng/g
  concentration at 8 h: 55300 ng/g
[5]
  stability of formulation (in words): surprisingly stable
